This passage reports remaining activity results from patent US20240246942A1, “KINASE INHIBITORS FOR THE TREATMENT OF NEURODEGENERATIVE DISEASES” (priority 2020, published 2024).

What all share (assay): biochemical
For assay [1], the target named is T1, panel of 374 wild-type kinases (Homo sapiens, UniProt P14616).
T1 construct: purchased Reaction Biology Corporation
The settings on record: read-out: % Enzyme Activity (relative to DMSO controls), IRR/INSRR.

Assay [2] addresses T2, panel of 374 wild-type kinases (Homo sapiens, UniProt Q5S007).
T2 construct: purchased Reaction Biology Corporation
The settings on record: read-out: % Enzyme Activity (relative to DMSO controls), LRRK2.

The target of assay [3] is T3, panel of 374 wild-type kinases (Homo sapiens, UniProt P27361).
T3 construct: purchased Reaction Biology Corporation
T3 sequence (P27361 whole entry): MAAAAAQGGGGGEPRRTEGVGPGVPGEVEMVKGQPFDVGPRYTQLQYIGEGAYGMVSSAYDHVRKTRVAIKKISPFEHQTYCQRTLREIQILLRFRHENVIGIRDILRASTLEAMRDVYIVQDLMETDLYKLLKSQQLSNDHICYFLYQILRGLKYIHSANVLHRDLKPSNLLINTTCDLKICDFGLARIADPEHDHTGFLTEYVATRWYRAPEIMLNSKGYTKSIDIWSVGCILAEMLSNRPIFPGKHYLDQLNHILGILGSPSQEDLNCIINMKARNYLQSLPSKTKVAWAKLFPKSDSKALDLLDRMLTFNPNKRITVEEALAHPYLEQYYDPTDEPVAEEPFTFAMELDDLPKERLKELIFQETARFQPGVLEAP
The settings on record: read-out: % Enzyme Activity (relative to DMSO controls), ERK1.

In assay [4] the target is T4, panel of 374 wild-type kinases (Homo sapiens, UniProt O95382).
T4 construct: purchased Reaction Biology Corporation
T4 sequence (O95382 1-1288): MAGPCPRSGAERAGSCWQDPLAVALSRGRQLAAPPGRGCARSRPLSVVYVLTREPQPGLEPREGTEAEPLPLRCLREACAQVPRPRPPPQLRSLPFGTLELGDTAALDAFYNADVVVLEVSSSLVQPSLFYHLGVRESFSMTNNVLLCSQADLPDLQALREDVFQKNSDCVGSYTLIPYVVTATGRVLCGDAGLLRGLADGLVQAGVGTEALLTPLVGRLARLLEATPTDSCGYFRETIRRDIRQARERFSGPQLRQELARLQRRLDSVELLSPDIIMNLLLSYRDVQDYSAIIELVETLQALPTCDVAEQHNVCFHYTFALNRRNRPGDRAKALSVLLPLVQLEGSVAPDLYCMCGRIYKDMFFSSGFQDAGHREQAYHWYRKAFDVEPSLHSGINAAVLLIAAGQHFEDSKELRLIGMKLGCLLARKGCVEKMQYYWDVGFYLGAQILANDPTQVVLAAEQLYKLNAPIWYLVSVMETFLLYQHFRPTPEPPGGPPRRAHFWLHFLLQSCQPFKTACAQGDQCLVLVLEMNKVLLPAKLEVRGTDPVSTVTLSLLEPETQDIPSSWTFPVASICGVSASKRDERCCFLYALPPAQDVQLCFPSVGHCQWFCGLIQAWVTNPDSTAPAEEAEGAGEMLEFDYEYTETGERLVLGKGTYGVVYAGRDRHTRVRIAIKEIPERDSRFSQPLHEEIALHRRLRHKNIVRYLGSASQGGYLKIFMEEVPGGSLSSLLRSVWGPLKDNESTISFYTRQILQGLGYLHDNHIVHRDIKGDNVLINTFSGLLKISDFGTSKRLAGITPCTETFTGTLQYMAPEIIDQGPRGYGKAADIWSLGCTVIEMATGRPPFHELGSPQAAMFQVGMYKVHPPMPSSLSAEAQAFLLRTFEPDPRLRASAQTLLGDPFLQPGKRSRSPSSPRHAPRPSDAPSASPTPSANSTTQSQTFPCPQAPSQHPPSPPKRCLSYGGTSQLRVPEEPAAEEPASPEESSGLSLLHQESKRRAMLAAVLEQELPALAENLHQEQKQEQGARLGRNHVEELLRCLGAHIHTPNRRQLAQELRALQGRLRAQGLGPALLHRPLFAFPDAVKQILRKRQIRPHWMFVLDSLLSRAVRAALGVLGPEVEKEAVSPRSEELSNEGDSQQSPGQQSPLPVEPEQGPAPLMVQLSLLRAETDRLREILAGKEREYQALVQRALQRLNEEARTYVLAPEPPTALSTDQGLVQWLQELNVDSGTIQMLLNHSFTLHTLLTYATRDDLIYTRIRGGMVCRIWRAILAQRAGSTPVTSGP
The conditions noted are these: read-out: % Enzyme Activity (relative to DMSO controls), MEKK6.

Assay [5] has as its target T5, panel of 374 wild-type kinases (Homo sapiens, UniProt P54764).
T5 construct: purchased Reaction Biology Corporation
The conditions noted are these: read-out: % Enzyme Activity (relative to DMSO controls), EPHA4.

Assay [6] has as its target T6, panel of 374 wild-type kinases (Homo sapiens, UniProt Q9P0L2).
T6 construct: purchased Reaction Biology Corporation
The settings on record: read-out: % Enzyme Activity (relative to DMSO controls), MARK1.

Assay [7] concerns the target T7, panel of 374 wild-type kinases (Homo sapiens, UniProt Q9UIK4).
T7 construct: purchased Reaction Biology Corporation
The settings on record: read-out: % Enzyme Activity (relative to DMSO controls), DAPK2.

Assay [8] addresses T8, panel of 374 wild-type kinases (Homo sapiens, UniProt Q8WTQ7).
T8 construct: purchased Reaction Biology Corporation
T8 sequence (Q8WTQ7 1-553): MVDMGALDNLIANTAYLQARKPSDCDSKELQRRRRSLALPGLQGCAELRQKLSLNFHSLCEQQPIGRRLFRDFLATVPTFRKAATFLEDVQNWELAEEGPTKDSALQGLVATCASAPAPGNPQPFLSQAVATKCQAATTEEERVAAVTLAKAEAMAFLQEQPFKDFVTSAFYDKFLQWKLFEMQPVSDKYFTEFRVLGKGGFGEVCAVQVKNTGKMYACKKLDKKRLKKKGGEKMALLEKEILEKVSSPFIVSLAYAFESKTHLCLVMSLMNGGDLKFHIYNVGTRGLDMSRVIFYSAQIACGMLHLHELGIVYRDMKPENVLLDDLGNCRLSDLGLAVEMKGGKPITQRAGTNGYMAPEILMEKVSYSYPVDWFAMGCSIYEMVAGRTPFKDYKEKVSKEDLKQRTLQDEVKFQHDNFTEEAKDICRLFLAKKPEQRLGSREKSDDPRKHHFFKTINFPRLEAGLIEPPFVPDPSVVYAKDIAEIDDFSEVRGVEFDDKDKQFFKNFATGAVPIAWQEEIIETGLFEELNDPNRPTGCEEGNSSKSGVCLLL
The conditions noted are these: for remaining activity at 5 µM: read-out: % Enzyme Activity (relative to DMSO controls), GRK7.

Assay [9] concerns the target T9, panel of 374 wild-type kinases (Homo sapiens, UniProt P53350).
T9 construct: purchased Reaction Biology Corporation
The settings on record: read-out: % Enzyme Activity (relative to DMSO controls), kinase PLK1.

T5 sequence (P54764 20-986): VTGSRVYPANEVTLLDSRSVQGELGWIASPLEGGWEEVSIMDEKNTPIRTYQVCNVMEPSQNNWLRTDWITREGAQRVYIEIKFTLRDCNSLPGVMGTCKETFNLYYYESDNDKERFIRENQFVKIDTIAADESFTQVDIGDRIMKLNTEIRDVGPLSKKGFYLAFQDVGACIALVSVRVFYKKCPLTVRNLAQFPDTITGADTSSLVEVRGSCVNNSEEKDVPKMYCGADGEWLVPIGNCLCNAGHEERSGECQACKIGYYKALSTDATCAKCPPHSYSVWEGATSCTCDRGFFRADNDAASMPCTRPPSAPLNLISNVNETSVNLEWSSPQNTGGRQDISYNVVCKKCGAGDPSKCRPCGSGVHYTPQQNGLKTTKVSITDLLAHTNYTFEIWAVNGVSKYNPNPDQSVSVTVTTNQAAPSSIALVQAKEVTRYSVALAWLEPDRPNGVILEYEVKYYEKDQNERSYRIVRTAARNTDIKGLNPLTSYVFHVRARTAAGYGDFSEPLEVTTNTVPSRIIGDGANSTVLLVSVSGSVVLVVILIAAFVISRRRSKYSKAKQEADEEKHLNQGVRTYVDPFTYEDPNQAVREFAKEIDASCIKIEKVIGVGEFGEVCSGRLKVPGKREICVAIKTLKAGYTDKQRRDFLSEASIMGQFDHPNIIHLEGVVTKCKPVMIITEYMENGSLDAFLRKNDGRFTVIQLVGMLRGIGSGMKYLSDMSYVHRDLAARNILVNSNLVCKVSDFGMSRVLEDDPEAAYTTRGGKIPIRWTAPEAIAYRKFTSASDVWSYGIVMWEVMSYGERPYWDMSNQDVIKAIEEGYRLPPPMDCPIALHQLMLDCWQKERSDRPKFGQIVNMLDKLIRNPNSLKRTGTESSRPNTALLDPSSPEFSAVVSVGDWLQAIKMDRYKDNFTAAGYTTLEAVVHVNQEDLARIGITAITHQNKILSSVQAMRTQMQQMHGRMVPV
T2 sequence (Q5S007 whole entry): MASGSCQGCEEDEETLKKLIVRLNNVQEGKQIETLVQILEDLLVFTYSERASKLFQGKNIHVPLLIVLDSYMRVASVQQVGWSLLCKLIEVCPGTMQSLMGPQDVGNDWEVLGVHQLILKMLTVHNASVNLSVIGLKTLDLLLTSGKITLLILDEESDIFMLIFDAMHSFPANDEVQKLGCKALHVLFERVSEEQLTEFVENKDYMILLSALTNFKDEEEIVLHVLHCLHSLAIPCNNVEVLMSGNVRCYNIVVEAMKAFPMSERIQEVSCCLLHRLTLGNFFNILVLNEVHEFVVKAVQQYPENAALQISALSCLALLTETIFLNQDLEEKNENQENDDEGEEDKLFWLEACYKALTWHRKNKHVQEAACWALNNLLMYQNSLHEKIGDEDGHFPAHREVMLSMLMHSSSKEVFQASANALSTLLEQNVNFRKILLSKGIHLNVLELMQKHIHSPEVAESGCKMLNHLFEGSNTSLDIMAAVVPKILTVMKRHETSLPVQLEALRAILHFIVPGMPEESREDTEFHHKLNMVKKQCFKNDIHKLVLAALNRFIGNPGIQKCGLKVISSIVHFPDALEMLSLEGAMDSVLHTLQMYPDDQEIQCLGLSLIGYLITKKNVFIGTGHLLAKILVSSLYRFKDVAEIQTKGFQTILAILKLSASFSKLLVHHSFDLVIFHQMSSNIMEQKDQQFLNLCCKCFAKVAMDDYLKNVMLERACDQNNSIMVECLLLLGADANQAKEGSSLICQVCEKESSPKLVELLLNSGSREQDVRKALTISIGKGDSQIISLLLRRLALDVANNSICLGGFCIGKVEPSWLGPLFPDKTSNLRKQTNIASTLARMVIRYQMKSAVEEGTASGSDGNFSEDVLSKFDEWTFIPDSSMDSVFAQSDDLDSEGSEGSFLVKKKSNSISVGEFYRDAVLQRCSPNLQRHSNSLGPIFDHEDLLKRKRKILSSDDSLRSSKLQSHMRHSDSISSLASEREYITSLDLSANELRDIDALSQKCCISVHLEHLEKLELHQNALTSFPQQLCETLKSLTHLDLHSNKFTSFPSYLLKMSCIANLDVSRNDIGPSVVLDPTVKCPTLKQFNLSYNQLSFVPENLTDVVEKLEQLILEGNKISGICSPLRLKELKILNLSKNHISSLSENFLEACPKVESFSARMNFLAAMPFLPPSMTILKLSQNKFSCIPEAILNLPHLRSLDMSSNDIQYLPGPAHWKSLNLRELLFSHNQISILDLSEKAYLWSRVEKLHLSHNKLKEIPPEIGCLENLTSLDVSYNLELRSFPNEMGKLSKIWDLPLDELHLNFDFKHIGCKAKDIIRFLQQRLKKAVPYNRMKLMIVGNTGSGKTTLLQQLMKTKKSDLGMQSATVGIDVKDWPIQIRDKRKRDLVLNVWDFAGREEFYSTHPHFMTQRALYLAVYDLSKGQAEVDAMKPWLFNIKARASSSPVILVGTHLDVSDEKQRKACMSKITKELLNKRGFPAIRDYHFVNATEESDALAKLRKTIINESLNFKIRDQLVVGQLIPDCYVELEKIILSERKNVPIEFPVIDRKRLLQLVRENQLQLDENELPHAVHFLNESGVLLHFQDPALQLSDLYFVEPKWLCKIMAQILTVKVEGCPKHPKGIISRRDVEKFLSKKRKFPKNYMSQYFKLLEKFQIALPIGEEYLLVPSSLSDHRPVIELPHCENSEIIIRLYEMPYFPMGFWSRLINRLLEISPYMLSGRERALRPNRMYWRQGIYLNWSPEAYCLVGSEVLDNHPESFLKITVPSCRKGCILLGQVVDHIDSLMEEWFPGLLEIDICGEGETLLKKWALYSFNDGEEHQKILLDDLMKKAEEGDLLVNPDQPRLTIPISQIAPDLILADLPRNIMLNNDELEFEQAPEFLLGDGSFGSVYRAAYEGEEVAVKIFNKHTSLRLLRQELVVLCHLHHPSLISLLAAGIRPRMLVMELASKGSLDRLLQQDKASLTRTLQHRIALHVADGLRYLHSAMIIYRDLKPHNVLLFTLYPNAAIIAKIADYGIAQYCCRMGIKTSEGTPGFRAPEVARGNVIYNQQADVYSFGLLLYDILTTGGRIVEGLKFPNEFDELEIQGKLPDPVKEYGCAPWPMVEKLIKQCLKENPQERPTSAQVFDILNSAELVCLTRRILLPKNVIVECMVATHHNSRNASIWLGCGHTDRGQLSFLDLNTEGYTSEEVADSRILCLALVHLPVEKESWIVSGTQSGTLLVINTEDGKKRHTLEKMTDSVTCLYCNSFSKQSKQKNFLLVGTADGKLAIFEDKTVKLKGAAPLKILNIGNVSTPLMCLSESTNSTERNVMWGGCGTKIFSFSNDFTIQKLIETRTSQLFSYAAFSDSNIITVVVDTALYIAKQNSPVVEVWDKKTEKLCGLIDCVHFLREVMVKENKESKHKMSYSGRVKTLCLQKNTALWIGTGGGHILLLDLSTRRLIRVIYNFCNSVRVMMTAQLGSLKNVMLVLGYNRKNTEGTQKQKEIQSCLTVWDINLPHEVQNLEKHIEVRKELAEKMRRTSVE
T7 sequence (Q9UIK4 whole entry): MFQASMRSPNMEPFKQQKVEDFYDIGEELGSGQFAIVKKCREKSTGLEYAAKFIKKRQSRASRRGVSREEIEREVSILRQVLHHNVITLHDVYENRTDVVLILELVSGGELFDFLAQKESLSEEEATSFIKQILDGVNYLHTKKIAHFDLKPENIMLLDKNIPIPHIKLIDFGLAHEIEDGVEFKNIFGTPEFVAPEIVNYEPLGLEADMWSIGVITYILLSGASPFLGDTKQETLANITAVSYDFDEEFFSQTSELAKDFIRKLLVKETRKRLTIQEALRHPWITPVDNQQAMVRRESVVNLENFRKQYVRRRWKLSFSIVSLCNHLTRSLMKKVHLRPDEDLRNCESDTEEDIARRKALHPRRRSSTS
T6 sequence (Q9P0L2 whole entry): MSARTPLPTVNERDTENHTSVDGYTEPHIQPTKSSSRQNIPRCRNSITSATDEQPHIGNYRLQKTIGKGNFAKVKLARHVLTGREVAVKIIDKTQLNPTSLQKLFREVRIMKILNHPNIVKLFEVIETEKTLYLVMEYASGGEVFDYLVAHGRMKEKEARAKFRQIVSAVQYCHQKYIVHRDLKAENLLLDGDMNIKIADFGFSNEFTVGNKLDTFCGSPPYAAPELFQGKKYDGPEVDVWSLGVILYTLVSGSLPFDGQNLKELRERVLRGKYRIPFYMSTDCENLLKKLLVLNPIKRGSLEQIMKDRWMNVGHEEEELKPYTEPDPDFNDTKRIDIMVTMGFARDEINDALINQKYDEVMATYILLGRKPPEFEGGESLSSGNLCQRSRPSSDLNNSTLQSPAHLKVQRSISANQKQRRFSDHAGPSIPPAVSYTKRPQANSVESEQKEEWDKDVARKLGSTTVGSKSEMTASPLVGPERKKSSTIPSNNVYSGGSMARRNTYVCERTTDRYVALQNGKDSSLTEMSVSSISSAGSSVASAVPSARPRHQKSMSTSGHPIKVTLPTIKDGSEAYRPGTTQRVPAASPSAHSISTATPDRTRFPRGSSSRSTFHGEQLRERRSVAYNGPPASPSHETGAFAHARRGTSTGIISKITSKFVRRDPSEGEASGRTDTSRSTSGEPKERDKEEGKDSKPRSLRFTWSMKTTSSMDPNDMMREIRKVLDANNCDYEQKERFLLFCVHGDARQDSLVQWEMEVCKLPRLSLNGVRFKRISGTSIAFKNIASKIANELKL

As for `Cc1sc(C(=O)NC2COC2)cc1-n1cc(NC(=O)Nc2c(F)cccc2Cl)cn1` [Compound 27, 4-(4-(3-(2-chloro-6-fluorophenyl)ureido)-1H-pyrazol-1-yl)-5-methyl-N-(oxetan-3-yl)thiophene-2-carboxamide], the remaining activity at 10 µM amounted to 71.9% in assay [1] (10 uM); 101% in [2] (10 uM); 107% in assay [3] (10 uM); 79.3% in [4] (10 uM); 116% in assay [5] (10 uM); 95.3% in assay [6] (10 uM). Besides, the remaining activity at 10 µM in assay [7] (10 uM) turned out to be 99.5%; in assay [8] (GRK7, 10 uM, read-out: % Enzyme Activity (relative to DMSO controls)), 98.3%; in assay [9] (10 uM), 104%.
Regarding `O=C(Nc1cnn(-c2csc(C(=O)NC3COC3)c2)c1)Nc1c(F)cccc1Cl` [Compound 25, 4-(4-(3-(2-chloro-6-fluorophenyl)ureido)-1H-pyrazol-1-yl)-N-(oxetan-3-yl)thiophene-2-carboxamide], the remaining activity at 5 µM in assay [1] came out at 75.9%; in assay [2], 91.3%; in assay [3], 92.4%; in assay [4], 92.5%; in assay [5] it was 89.1%; in [6], 108%. Further, the remaining activity at 5 µM amounted to 102% in assay [7], 94% in [8] and 95.5% in [9].
With `O=C(Nc1cnn(-c2csc(C(=O)NC3COC3)c2)c1)Nc1ccccc1Cl` [Compound 17, 4-(4-(3-(2-chlorophenyl)ureido)-1H-pyrazol-1-yl)-N-(oxetan-3-yl)thiophene-2-carboxamide], the remaining activity at 5 µM amounted to 96% in [1]; 88.2% in assay [2]; 92.8% in assay [3]; 98.8% in [4]; 100% in [5]; 96.3% in assay [6]. Also, the remaining activity at 5 µM in [7] stood at 103%; in assay [8], 96.4%; in assay [9] it was 97%.
